In patent publication US11512053B2, “Arginine methyltransferase inhibitors and uses thereof” (priority 2013, dated 2022):
Read-outs that look alike come from different tables or passages of the source.

Legend:
[1] = biological target: full-length human PRMT1 isoform 1 (GST-tagged) (Homo sapiens, UniProt Q99873); experiment: PRMT1 Biochemical Assay (3H-SAM Flashplate, peptide substrate)
Excerpt: (§1) General Materials. S-adenosylmethionine (SAM), S-adenosylhomocysteine (SAH), bicine, Tween20, dimethylsulfoxide (DMSO), bovine skin gelatin (BSG), and Tris(2-carboxyethyl)phosphine hydrochloride solution (TCEP) were purchased from Sigma-Aldrich at the highest level of purity possible. ^3H-SAM was purchase from American Radiolabeled Chemicals with a specific activity of 80 Ci/mmol. 384-well streptavidin Flashplates were purchased from PerkinElmer.
Protein Expression. Recombinant baculovirus were generated according to Bac-to-Bac kit instructions (Life Technologies). […] Infections were carried out at 27° C. for 48 hours, harvested by centrifugation, and stored at −80° C. for purification.
Protein Purification. […] GST-tagged PRMT1 was eluted with 50 mM Tris, 2 mM glutathione, pH 7.8, dialysed in buffer A and concentrated to 1 mg/mL.
General Procedure for PRMT1 Enzyme Assays on Peptide Substrates. The assays were all performed in a buffer consisting of 20 mM Bicine (pH=7.6), 1 mM TCEP, 0.005% BSG, and 0.002% Tween 20, prepared on the day of use. […] DMSO (1 ul) was added to Columns 11, 12, 23, 24, rows A-H for the maximum signal control and 1 ul of SAH, a known product and inhibitor of PRMT1, was added to columns 11, 12, 23, 24, rows I-P for the minimum signal control. A cocktail (40 ul) containing the PRMT1 enzyme was added by Multidrop Combi (Thermo-Fisher). The compounds were allowed to incubate with PRMT1 for 30 min at room temperature, then a cocktail (10 ul) containing SAM and peptide was added to initiate the reaction (final volume=51 ul). […] The assays were stopped by the addition of non-radiolabeled SAM (10 ul) to a final concentration of 300 uM, which dilutes the ^3H-SAM to a level where its incorporation into the peptide substrate is no longer detectable. 50 ul of the reaction in the 384-well polypropylene plate was then transferred to a 384-well Flashplate and the biotinylated peptides were allowed to bind to the streptavidin surface for at least 1 hour before being washed once with 0.1% Tween20 in a Biotek ELx405 plate washer. The plates were then read in a PerkinElmer TopCount plate reader to measure the quantity of ^3H-labeled peptide bound to the Flashplate surface, measured as disintegrations per minute (dpm) or alternatively, referred to as counts per minute (cpm).
Where dpm=disintegrations per minute, cmpd=signal in assay well, and min and max are the respective minimum and maximum signal controls.
Where top and bottom are the normally allowed to float, but may be fixed at 100 or 0 respectively in a 3-parameter fit. The Hill Coefficient normally allowed to float but may also be fixed at 1 in a 3-parameter fit. Y is the % inhibition and X is the compound concentration.

[2] = biological target: full-length human PRMT6 (Flag- and His-tagged) (Homo sapiens, UniProt Q96LA8); experiment: PRMT6 Biochemical Assay (3H-SAM Flashplate, peptide substrate); settings: read-out: Biochemical IC50 PRMT6
Excerpt: as §1, with “(BSG), sodium butyrate” for “(BSG),”
Substrates. Peptide representative of human histone H4 residues 36-50 was synthesized with an N-terminal linker-affinity tag motif and a C-terminal amide cap by 21st Century Biochemicals. The peptide was purified by high-performance liquid chromatography (HPLC) to greater than 95% purity and confirmed by liquid chromatography mass spectrometry (LC-MS). The sequence was Biot-Ahx-[…]-amide and contained a monomethylated lysine at position 44 (SEQ ID NO.:5).
Molecular Biology: Full-length human PRMT6 (NM_018137.2) transcript clone was amplified from an HEK 293 cDNA library, incorporating a flanking 5′ sequence encoding a FLAG tag ([…]) (SEQ ID NO.:6) fused directly to Ser 2 of PRMT6 and a 3′ sequence encoding a hexa His sequence (HHHHHH) (SEQ ID NO.:17) fused directly to Asp 375. The amplified gene was subcloned into pFastBacMam (Viva Biotech).
Protein Expression. Recombinant baculovirus were generated according to Bac-to-Bac kit instructions (Life Technologies). […] Infections were carried out at 37° C. for 48 hours, harvested by centrifugation, and stored at −80° C. for purification.
Protein Purification. […] Column was washed with 20 mM imidazole in the same buffer and Flag-PRMT6-His was eluted with 150 mM imidazole. Pooled fractions were dialysed against buffer N^1-A and further purified by anti-flag M2 affinity chromatography. Flag-PRMT6-His was eluted with 200 ug/ml FLAG peptide in the same buffer. Pooled fractions were dialysed in 20 mM Tris, 150 mM NaCl, 10% glycerol and 5 mM β-mercaptoethanol, pH 7.8. The purity of recovered protein was 95%.
General Procedure for PRMT6 Enzyme Assays on Peptide Substrates. The assays were all performed in a buffer consisting of 20 mM Bicine (pH=7.6), 1 mM TCEP, 0.005% BSG, and 0.002% Tween 20, prepared on the day of use. Compounds in 100% DMSO (1 ul) were spotted into a polypropylene 384-well V-bottom plates (Greiner) using a Platemate Plus outfitted with a 384-channel head (Thermo Scientific). DMSO (1 ul) was added to Columns 11, 12, 23, 24, rows A-H for the maximum signal control and 1 ul of SAH, a known product and inhibitor of PRMT6, was added to columns 11, 12, 23, 24, rows I-P for the minimum signal control. A cocktail (40 ul) containing the PRMT6 enzyme was added by Multidrop Combi (Thermo-Fisher). The compounds were allowed to incubate with PRMT6 for 30 min at room temperature, then a cocktail (10 ul) containing SAM and peptide was added to initiate the reaction (final volume=51 ul). The final concentrations of the components were as follows: PRMT6 was 1 nM, ^3H-SAM was 200 nM, non-radiolabeled SAM was 250 nM, peptide was 75 nM, SAH in the minimum signal control wells was 1 mM, and the DMSO concentration was 2%. The assays were stopped by the addition of non-radiolabeled SAM (10 ul) to a final concentration of 400 uM, which dilutes the ^3H-SAM to a level where its incorporation into the peptide substrate is no longer detectable. 50 ul of the reaction in the 384-well polypropylene plate was then transferred to a 384-well Flashplate and the biotinylated peptides were allowed to bind to the streptavidin surface for at least 1 hour before being washed once with 0.1% Tween20 in a Biotek ELx405 plate washer. The plates were then read in a PerkinElmer TopCount plate reader to measure the quantity of ^3H-labeled peptide bound to the Flashplate surface, measured as disintegrations per minute (dpm) or alternatively, referred to as counts per minute (cpm). […]

[3] = single experiment or average of multiple experiments

Chain of full-length human PRMT1 isoform 1 (GST-tagged) (Q99873 with tags, fused parts or gaps): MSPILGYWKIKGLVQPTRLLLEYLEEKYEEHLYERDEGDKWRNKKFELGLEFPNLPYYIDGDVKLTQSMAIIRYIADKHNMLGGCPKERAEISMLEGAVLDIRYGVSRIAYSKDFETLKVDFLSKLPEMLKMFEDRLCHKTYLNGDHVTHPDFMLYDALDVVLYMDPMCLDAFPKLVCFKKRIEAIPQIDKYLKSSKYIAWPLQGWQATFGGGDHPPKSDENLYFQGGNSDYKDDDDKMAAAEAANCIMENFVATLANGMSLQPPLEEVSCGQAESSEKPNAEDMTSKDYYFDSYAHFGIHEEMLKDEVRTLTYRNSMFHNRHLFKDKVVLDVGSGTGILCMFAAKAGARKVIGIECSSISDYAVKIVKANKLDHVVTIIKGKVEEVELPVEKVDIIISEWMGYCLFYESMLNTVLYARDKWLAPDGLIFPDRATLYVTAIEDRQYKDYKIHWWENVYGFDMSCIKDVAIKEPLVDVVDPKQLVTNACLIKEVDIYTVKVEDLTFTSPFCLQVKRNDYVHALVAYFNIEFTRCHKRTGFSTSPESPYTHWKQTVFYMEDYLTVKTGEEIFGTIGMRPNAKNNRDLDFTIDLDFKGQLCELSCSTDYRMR
Chain of full-length human PRMT6 (Flag- and His-tagged) (Q96LA8 with tags, fused parts or gaps): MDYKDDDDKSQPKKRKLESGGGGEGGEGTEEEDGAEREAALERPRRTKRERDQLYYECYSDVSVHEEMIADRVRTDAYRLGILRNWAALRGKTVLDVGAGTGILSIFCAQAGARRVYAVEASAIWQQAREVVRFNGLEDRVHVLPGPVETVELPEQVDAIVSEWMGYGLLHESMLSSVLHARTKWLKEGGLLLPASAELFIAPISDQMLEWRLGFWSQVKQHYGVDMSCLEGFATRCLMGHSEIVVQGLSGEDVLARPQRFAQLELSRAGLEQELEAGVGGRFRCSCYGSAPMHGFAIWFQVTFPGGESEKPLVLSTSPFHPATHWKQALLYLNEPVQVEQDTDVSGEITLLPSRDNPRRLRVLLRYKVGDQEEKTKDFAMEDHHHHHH

Row | SMILES | IC50 [1] | IC50 [1, 3] | IC50 [2] | IC50 [2, 3]
1 | CNCCN(C)Cc1c[nH]nc1C1CCC(N(CC(C)C)C(=O)CC2CCOCC2)CC1 (stereo not shown) [Compound 114] | 101 to 1000 nM | 101 nM | < 100 nM | 92.6 nM
2 | CCCOC1CC(OCCC)CC(c2n[nH]cc2CN(C)CCNC)C1 (stereo not shown) [Compound 131] | 101 to 1000 nM | 270 nM | > 10000 nM | > 10000 nM
3 | CNCCN(C)Cc1c[nH]nc1C1CCC(CCOC)(CCOC)CC1 [Compound 174] | < 100 nM | 15.5 nM | < 100 nM | 84.4 nM
4 | CNCCN(C)Cc1c[nH]nc1C1CCC2(CC1)OCCO2 [Compound 177] | < 100 nM | 27.6 nM | 101 to 1000 nM | 113 nM
5 | CNCCN(C)Cc1c[nH]nc1[C@H]1CC[C@@]2(CCN(Cc3cc(F)cc(F)c3)C2=O)CC1 [Compound 126] | < 100 nM | 4 nM | < 100 nM | 9.4 nM
6 | CNCCN(C)Cc1c[nH]nc1C1CCC2(CC1)CC(=O)N(Cc1ccc(OC)cc1)C2 (stereo not shown) [Compound 146] | < 100 nM | 14 nM | < 100 nM | 21.7 nM
7 | CNCCN(C)Cc1c[nH]nc1C1CCC2(CC1)CCC(F)(F)CC2 [Compound 130] | < 100 nM | 3.4 nM | < 100 nM | 4.2 nM
8 | CNCCN(C)Cc1c[nH]nc1C1CCC2(CC1)CC2 [Compound 144] | < 100 nM | 21.6 nM | < 100 nM | 35.6 nM
9 | CNCCN(C)Cc1c[nH]nc1[C@H]1CC[C@]2(CCN(CC(C)C)C2=O)CC1 [Compound 124] | < 100 nM | 6.4 nM | < 100 nM | 26.2 nM
10 | CNCCN(C)Cc1c[nH]nc1C1CCCC(COCCOC)C1 (stereo not shown) [Compound 112] | < 100 nM | 18.9 nM | < 100 nM | 57.4 nM
11 | CNCCN(C)Cc1c[nH]nc1C1CCC(O)C2(CCCC2)C1 (stereo not shown) [Compound 182, 9-[4-({methyl[2-(methylamino)ethyl]amino}methyl)-1H-pyrazol-3-yl]spiro[4.5]decan-6-ol] | < 100 nM | 11.6 nM | < 100 nM | 73.5 nM

Further lines, results first:

Row | IC50 [1] | IC50 [1, 3] | IC50 [2] | IC50 [2, 3] | SMILES
12 | < 100 nM | 13.1 nM | < 100 nM | 29.4 nM | CNCCN(C)Cc1c[nH]nc1C1CCC(=O)N(CCc2ccccc2)C1 (stereo not shown) [Compound 110]
13 | < 100 nM | 10.6 nM | < 100 nM | 22 nM | CNCCN(C)Cc1c[nH]nc1[C@H]1CC[C@@]2(CCCO2)CC1 [Compound 143]
14 | < 100 nM | 15.2 nM | < 100 nM | 97.7 nM | CNCCN(C)Cc1c[nH]nc1C1CCC2(CC1)OC(C)CC(C)O2 (stereo not shown) [Compound 121]
15 | < 100 nM | 61 nM | 101 to 1000 nM | 326 nM | CCC(=O)N(CC1CCOCC1)[C@H]1CC[C@@H](c2n[nH]cc2CN(C)CCNC)CC1 [Compound 108]
16 | < 100 nM | 4.7 nM | < 100 nM | 27.9 nM | CNCCN(C)Cc1c[nH]nc1[C@H]1CC[C@@H](C(C)C)CC1 [Compound 181]
17 | < 100 nM | 26.2 nM | < 100 nM | 38 nM | CNCCN(C)Cc1c[nH]nc1C1CCC2(CC1)CN(CC(C)C)C(=O)N2C (stereo not shown) [Compound 145]
18 | < 100 nM | 38.6 nM | < 100 nM | 96.2 nM | CNCCN(C)Cc1c[nH]nc1C1CCC(=O)N(CCC(C)C)C1 (stereo not shown) [Compound 117]
19 | < 100 nM | 7.3 nM | < 100 nM | 23.3 nM | CNCCN(C)Cc1c[nH]nc1C1CCC2(CCCCO2)CC1 (stereo not shown) [Compound 137]
20 | < 100 nM | 17.6 nM | 101 to 1000 nM | 120 nM | CNCCN(C)Cc1c[nH]nc1C1CCC2(CC1)CC(=O)N(CCC(C)C)C2 (stereo not shown) [Compound 165]
21 | < 100 nM | 17.7 nM | < 100 nM | 44.3 nM | CCN1CC2(CCC(c3n[nH]cc3CN(C)CCNC)CC2)N(C)C1=O (stereo not shown) [Compound 154]
22 | < 100 nM | 10 nM | < 100 nM | 10 nM | CN(CCN)Cc1c[nH]nc1CCc1ccccc1 [Compound 9]
23 | < 100 nM | 23.2 nM | < 100 nM | 28.4 nM | CNCCN(C)Cc1c[nH]nc1C1CCC(OCC(C)C)CC1 (stereo not shown) [Compound 153]
24 | < 100 nM | 8.04 nM | < 100 nM | 40.5 nM | CNCCN(C)Cc1c[nH]nc1[C@H]1CC[C@]2(CCC(C)(C)O2)CC1 [Compound 104]
25 | < 100 nM | 23.2 nM | < 100 nM | 89.9 nM | CNCCN(C)Cc1c[nH]nc1C1=CCC(CCOC)(CCOC)CC1 [Compound 173]
26 | < 100 nM | 15.9 nM | < 100 nM | 62.9 nM | CNCCN(C)Cc1c[nH]nc1C1CC(C)OC(C)C1 (stereo not shown) [Compound 179]
27 | < 100 nM | 44 nM | < 100 nM | 55.6 nM | CNCCN(C)Cc1c[nH]nc1C1CCC2(CC1)OCC(C(C)C)CO2 (stereo not shown) [Compound 150]
28 | < 100 nM | 9.5 nM | < 100 nM | 13.5 nM | CNCCN(C)Cc1c[nH]nc1[C@H]1CC[C@@]2(CCOC2(C)C)CC1 [Compound 106, Methyl [2-(methylamino)ethyl]([3-[(5R,8R)-1,1-dimethyl-2-oxaspiro[4.5]decan-8-yl]-1H-pyrazol-4-yl]methyl)amine]
